# Data as given in PubChem BioAssay (NCI).
#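 The compound was tested at five concentrations on cells cultured in 96-well plates, with a 48-hour exposure period. The concentration for 50% growth inhibition is given as GI50. At the TGI there is no net growth.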
# Experiments:
# Assay in all cases: growth of human tumour cells (NCI), 48 h
# SF-539 CNS = tested on: SF-539 CNS
# SK-MEL-5 melanoma = tested on: SK-MEL-5 melanoma
# RPMI-8226 leukemia = tested on: RPMI-8226 leukemia
# KM12 colon = tested on: KM12 colon
# SK-MEL-28 melanoma = tested on: SK-MEL-28 melanoma
# SK-OV-3 ovarian = tested on: SK-OV-3 ovarian
# PC-3 prostate = tested on: PC-3 prostate
# OVCAR-3 ovarian = tested on: OVCAR-3 ovarian
# ACHN renal = tested on: ACHN renal
# SW-620 colon = tested on: SW-620 colon
# A549 NSCLC = tested on: A549 NSCLC
# OVCAR-5 ovarian = tested on: OVCAR-5 ovarian
# U251 CNS = tested on: U251 CNS
# MOLT-4 leukemia = tested on: MOLT-4 leukemia
# SF-295 CNS = tested on: SF-295 CNS
# EKVX NSCLC = tested on: EKVX NSCLC
# DU-145 prostate = tested on: DU-145 prostate
# NCI-H226 lung = tested on: NCI-H226 lung
# SNB-19 CNS = tested on: SNB-19 CNS
# MDA-N = tested on: MDA-N
# MDA-MB-435 = tested on: MDA-MB-435
# HCC-2998 colon = tested on: HCC-2998 colon
# CAKI-1 renal = tested on: CAKI-1 renal
# A498 renal = tested on: A498 renal
# NCI-H460 lung = tested on: NCI-H460 lung
# SK-MEL-2 melanoma = tested on: SK-MEL-2 melanoma
# NCI/ADR-RES ovarian = tested on: NCI/ADR-RES ovarian
# UACC-257 melanoma = tested on: UACC-257 melanoma
# COLO 205 colon = tested on: COLO 205 colon
# OVCAR-4 ovarian = tested on: OVCAR-4 ovarian
# T-47D breast = tested on: T-47D breast
# HOP-62 NSCLC = tested on: HOP-62 NSCLC
# 786-0 renal = tested on: 786-0 renal
# MALME-3M melanoma = tested on: MALME-3M melanoma
# NCI-H23 lung = tested on: NCI-H23 lung
# RXF 393 renal = tested on: RXF 393 renal
# HCT-15 colon = tested on: HCT-15 colon
# MDA-MB-231 breast = tested on: MDA-MB-231 breast
# UO-31 renal = tested on: UO-31 renal
# HOP-92 NSCLC = tested on: HOP-92 NSCLC
# UACC-62 melanoma = tested on: UACC-62 melanoma
# HS 578T breast = tested on: HS 578T breast
# SF-268 CNS = tested on: SF-268 CNS
# HT29 colon = tested on: HT29 colon
# SN12C renal = tested on: SN12C renal
# LOX IMVI melanoma = tested on: LOX IMVI melanoma
# SR leukemia = tested on: SR leukemia
# HL-60(TB) leukemia = tested on: HL-60(TB) leukemia
# HCT-116 colon = tested on: HCT-116 colon
# CCRF-CEM leukemia = tested on: CCRF-CEM leukemia
# TK-10 renal = tested on: TK-10 renal
# OVCAR-8 ovarian = tested on: OVCAR-8 ovarian
# M14 melanoma = tested on: M14 melanoma
# K-562 leukemia = tested on: K-562 leukemia
# MCF7 breast = tested on: MCF7 breast
# BT-549 breast = tested on: BT-549 breast
# IGROV1 ovarian = tested on: IGROV1 ovarian
# SNB-75 CNS = tested on: SNB-75 CNS
# NCI-H522 lung = tested on: NCI-H522 lung
smiles,measurement,setting,value
CN(C)c1ccc(/C=c2/c3ccccc3n3c2cc(-c2ccc(Cl)cc2)[n+]3C)cc1,TGI,SF-539 CNS,0.748 µM
same,TGI,SK-MEL-5 melanoma,0.362 µM
same,TGI,RPMI-8226 leukemia,0.566 µM
same,TGI,KM12 colon,0.264 µM
same,TGI,SK-MEL-28 melanoma,1.9 µM
same,TGI,SK-OV-3 ovarian,1.45 µM
same,TGI,PC-3 prostate,1.01 µM
same,TGI,OVCAR-3 ovarian,1.34 µM
same,TGI,ACHN renal,1.46 µM
same,TGI,SW-620 colon,1.31 µM
same,TGI,A549 NSCLC,1.87 µM
same,TGI,OVCAR-5 ovarian,2.33 µM
same,TGI,U251 CNS,1.09 µM
same,TGI,MOLT-4 leukemia,> 100 µM
same,TGI,SF-295 CNS,1.77 µM
same,TGI,EKVX NSCLC,2.41 µM
same,TGI,DU-145 prostate,1.13 µM
same,TGI,NCI-H226 lung,1.68 µM
same,TGI,SNB-19 CNS,1.33 µM
same,TGI,MDA-N,1.23 µM
same,TGI,MDA-MB-435,1.18 µM
same,TGI,HCC-2998 colon,1.95 µM
same,TGI,CAKI-1 renal,0.782 µM
same,TGI,A498 renal,3.45 µM
same,TGI,NCI-H460 lung,0.656 µM
same,TGI,SK-MEL-2 melanoma,0.845 µM
same,TGI,NCI/ADR-RES ovarian,> 89.3 µM
same,TGI,UACC-257 melanoma,1.08 µM
same,TGI,COLO 205 colon,0.211 µM
same,TGI,OVCAR-4 ovarian,2.51 µM
same,TGI,T-47D breast,1.38 µM
same,TGI,HOP-62 NSCLC,1.48 µM
Cc1nc2c([nH]c1C)c(O)cc1c3c(nc12)C(=O)CCC3,TGI,SF-539 CNS,13.6 µM
same,TGI,786-0 renal,> 100 µM
same,TGI,SK-MEL-5 melanoma,> 100 µM
same,TGI,RPMI-8226 leukemia,7.05 µM
same,TGI,MALME-3M melanoma,> 100 µM
same,TGI,KM12 colon,> 100 µM
same,TGI,SK-MEL-28 melanoma,> 100 µM
same,TGI,NCI-H23 lung,> 100 µM
same,TGI,SK-OV-3 ovarian,38.1 µM
same,TGI,PC-3 prostate,> 100 µM
same,TGI,RXF 393 renal,3.68 µM
same,TGI,OVCAR-3 ovarian,7.31 µM
same,TGI,HCT-15 colon,> 100 µM
same,TGI,ACHN renal,> 100 µM
same,TGI,SW-620 colon,> 100 µM
same,TGI,A549 NSCLC,14.1 µM
same,TGI,MDA-MB-231 breast,> 100 µM
same,TGI,UO-31 renal,84.2 µM
same,TGI,HOP-92 NSCLC,> 100 µM
same,TGI,UACC-62 melanoma,52.6 µM
same,TGI,HS 578T breast,83 µM
same,TGI,SF-268 CNS,96.2 µM
same,TGI,HT29 colon,11.7 µM
same,TGI,SN12C renal,> 100 µM
same,TGI,LOX IMVI melanoma,> 100 µM
same,TGI,SR leukemia,8.77 µM
same,TGI,OVCAR-5 ovarian,> 100 µM
same,TGI,HL-60(TB) leukemia,> 100 µM
same,TGI,HCT-116 colon,> 100 µM
same,TGI,U251 CNS,20.9 µM
same,TGI,MOLT-4 leukemia,> 100 µM
same,TGI,CCRF-CEM leukemia,> 100 µM
same,TGI,SF-295 CNS,90.8 µM
same,TGI,EKVX NSCLC,> 100 µM
same,TGI,DU-145 prostate,> 100 µM
same,TGI,NCI-H226 lung,> 100 µM
same,TGI,SNB-19 CNS,> 100 µM
same,TGI,MDA-N,3.1 µM
same,TGI,TK-10 renal,26.3 µM
same,TGI,MDA-MB-435,2.05 µM
same,TGI,HCC-2998 colon,7.88 µM
same,TGI,OVCAR-8 ovarian,8.25 µM
same,TGI,A498 renal,> 100 µM
same,TGI,NCI-H460 lung,> 100 µM
same,TGI,M14 melanoma,> 100 µM
same,TGI,K-562 leukemia,> 100 µM
same,TGI,SK-MEL-2 melanoma,8.92 µM
same,TGI,NCI/ADR-RES ovarian,> 100 µM
same,TGI,MCF7 breast,4.35 µM
same,TGI,UACC-257 melanoma,> 100 µM
same,TGI,COLO 205 colon,5.99 µM
same,TGI,OVCAR-4 ovarian,45.4 µM
same,TGI,HOP-62 NSCLC,> 100 µM
Brc1ccc2[nH]cc([C@H]3CN[C@@H](c4c[nH]c5ccc(Br)cc45)CN3)c2c1,TGI,SF-539 CNS,4.06 µM
same,TGI,786-0 renal,5.68 µM
same,TGI,SK-MEL-5 melanoma,6.77 µM
same,TGI,RPMI-8226 leukemia,6.04 µM
same,GI50,MALME-3M melanoma,2.79 µM
same,TGI,MALME-3M melanoma,15 µM
same,TGI,KM12 colon,3.25 µM
same,TGI,BT-549 breast,> 62 µM
same,TGI,SK-MEL-28 melanoma,> 52.6 µM
same,TGI,NCI-H23 lung,3.62 µM
same,TGI,SK-OV-3 ovarian,> 23.5 µM
same,TGI,PC-3 prostate,5.27 µM
same,TGI,RXF 393 renal,> 25.4 µM
same,TGI,OVCAR-3 ovarian,3.8 µM
same,TGI,HCT-15 colon,3.81 µM
same,TGI,ACHN renal,5.01 µM
same,TGI,SW-620 colon,> 22.1 µM
same,TGI,A549 NSCLC,7.17 µM
same,TGI,IGROV1 ovarian,3.78 µM
same,GI50,MDA-MB-231 breast,1.85 µM
same,TGI,MDA-MB-231 breast,3.81 µM
same,TGI,UO-31 renal,5.29 µM
same,TGI,HOP-92 NSCLC,6.05 µM
same,TGI,UACC-62 melanoma,> 45.9 µM
same,TGI,HS 578T breast,28.2 µM
same,TGI,SF-268 CNS,9.05 µM
same,TGI,HT29 colon,4.68 µM
same,TGI,SN12C renal,9.89 µM
same,TGI,LOX IMVI melanoma,2.82 µM
same,TGI,SR leukemia,5.2 µM
same,GI50,OVCAR-5 ovarian,3.25 µM
same,TGI,OVCAR-5 ovarian,12 µM
same,TGI,HL-60(TB) leukemia,4.08 µM
same,TGI,HCT-116 colon,4.68 µM
same,TGI,U251 CNS,5.02 µM
same,TGI,MOLT-4 leukemia,4.95 µM
same,TGI,CCRF-CEM leukemia,6.11 µM
same,GI50,SF-295 CNS,12.2 µM
same,TGI,SF-295 CNS,27.6 µM
same,TGI,EKVX NSCLC,6.46 µM
same,TGI,DU-145 prostate,5.25 µM
same,TGI,NCI-H226 lung,7.76 µM
same,TGI,SNB-19 CNS,> 23.9 µM
same,TGI,TK-10 renal,4.78 µM
same,TGI,MDA-MB-435,3.18 µM
same,TGI,HCC-2998 colon,3.17 µM
same,GI50,SNB-75 CNS,1.5 µM
same,TGI,SNB-75 CNS,8.46 µM
same,TGI,OVCAR-8 ovarian,3.7 µM
same,TGI,CAKI-1 renal,4.88 µM
same,TGI,NCI-H522 lung,3.27 µM
same,TGI,A498 renal,4.53 µM
same,GI50,NCI-H460 lung,3.04 µM
same,TGI,NCI-H460 lung,16.3 µM
same,TGI,M14 melanoma,3.38 µM
same,TGI,K-562 leukemia,4.54 µM
same,TGI,SK-MEL-2 melanoma,5.54 µM
same,TGI,NCI/ADR-RES ovarian,4.52 µM
same,TGI,MCF7 breast,3.3 µM
same,GI50,UACC-257 melanoma,7.39 µM
same,TGI,UACC-257 melanoma,21.4 µM
same,TGI,COLO 205 colon,3.24 µM
same,TGI,OVCAR-4 ovarian,4.44 µM
same,GI50,T-47D breast,3.62 µM
same,TGI,T-47D breast,18 µM
same,TGI,HOP-62 NSCLC,> 41.2 µM
